In patent US11180462B2, “Microbiocidal oxadiazole derivatives” (SYNGENTA PARTICIPATIONS AG, priority 2015, dated 2021):

How the values were obtained:
[1] = tested on: Glomerella lagenarium (Colletotrichum lagenarium); assay: Fungicidal activity against Glomerella lagenarium (Colletotrichum lagenarium) liquid culture / cucumber / preventative (anthracnose); assay type: cell-based; settings: Colletotrichum orbiculare; 20 ppm in the applied formulation; liquid culture (PDB), growth inhibition measured photometrically after 3 to 4 days; compared to untreated control; read-out: disease control
How it was run: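 Photometric read-out of fungal growth after 2–7 days, expressed as percent antifungal activity versus untreated check. Cryo-stored conidia in PDB; compound at 20 ppm; dark, 24 °C, 96% RH.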

[2] = tested on: Puccinia recondita f. Sp. Tritici; assay: Fungicidal activity against Puccinia recondita f. sp. tritici / wheat / leaf disc curative (brown rust); assay type: in vivo; settings: foliar, 24 h, 200 ppm in the applied formulation, wheat leaf segments, curative (applied 1 day after inoculation), compared to untreated control leaf disks, read-out: disease control
How it was run: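 % disease control vs untreated, scored 6–8 d post-application. Wheat cv. Kanzler segments, spore-inoculated, dark 19° C/75% RH; formulated cpd applied 1 d post-inoc; then 19° C, 75% RH, 12 h L/12 h D.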

[3] = tested on: Puccinia recondita f. Sp. Tritici; assay: Fungicidal activity against Puccinia recondita f. sp. tritici / wheat / leaf disc preventative (brown rust); assay type: in vivo; settings: foliar, 200 ppm in the applied formulation, wheat leaf segments, preventative, compared to untreated control leaf disks, read-out: disease control
How it was run: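 Compound application precedes infection: segments of wheat cv. Kanzler, sprayed at 200 ppm, are inoculated with a spore suspension after 1 day. Incubation is at 19° C. with 75% relative humidity and 12 h light/12 h darkness, and control versus untreated leaves is rated 7 to 9 days post-application.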

[4] = tested on: Phakopsora Pachyrhizi; assay: Fungicidal activity against Phakopsora pachyrhizi / soybean / leaf disc preventative (Asian soybean rust); assay type: in vivo; settings: foliar, 200 ppm in the applied formulation, soybean leaf disks, compared to untreated control leaf disks, read-out: disease control
How it was run: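 Preventative soybean leaf-disc test: discs on water agar sprayed with diluted formulated compound, inoculated one day later with spores on the lower surface. Held 24–36 h dark at 20°C, 75% rh, then 12 h light/day; percent disease control versus untreated discs scored 12–14 days after application.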

O=C(CC(F)(F)F)N(Cc1ccc(-c2noc(C(F)(F)F)n2)cc1)C1CC1 [Compound 1.111, N-cyclopropyl-3,3,3-trifluoro-N-[[4-[5-(trifluoromethyl)-1,2,4-oxadiazol-3-yl]phenyl]methyl]-propanamide]
≥ 80%: inhibition of growth at 20 ppm [1] | pest or weed control at 200 ppm [2] | pest or weed control at 200 ppm [3] | pest or weed control at 200 ppm [4]

O=C(C1CCC1)N(Cc1ccc(-c2noc(C(F)(F)F)n2)cc1)C1CC1 [Compound 1.112, N-cyclopropyl-N-[[4-[5-(trifluoromethyl)-1,2.4-oxadiazol-3-yl]phenyl]methyl]-cyclobutane-carboxamide]
≥ 80%: inhibition of growth at 20 ppm [1] | pest or weed control at 200 ppm [2] | pest or weed control at 200 ppm [3] | pest or weed control at 200 ppm [4]

CC=CCC(=O)N(Cc1ccc(-c2noc(C(F)(F)F)n2)cc1)C1CC1 [Compound 1.114, N-cyclopropyl-N-[[4-[5-(trifluoromethyl)-1,2,4-oxadiazol-3-yl]phenyl]methyl]pent-3-enamide]
≥ 80%: inhibition of growth at 20 ppm [1] | pest or weed control at 200 ppm [2] | pest or weed control at 200 ppm [3] | pest or weed control at 200 ppm [4]

CC1CC1C(=O)N(Cc1ccc(-c2noc(C(F)(F)F)n2)cc1)C1CC1 (stereo not shown) [Compound 1.115, N-cyclopropyl-2-methyl-N-[[4-[5-(trifluoromethyl)-1,2,4-oxadiazol-3-yl]phenyl]methyl]-cyclopropane-carboxamide]
≥ 80%: inhibition of growth at 20 ppm [1] | pest or weed control at 200 ppm [2] | pest or weed control at 200 ppm [3] | pest or weed control at 200 ppm [4]

CC(C)(C)C(=O)N(Cc1ccc(-c2noc(C(F)(F)F)n2)cc1)C1CC1 [Compound 1.117, N-cyclopropyl-2,2-dimethyl-N-[[4-[5-(trifluoromethyl)-1,2,4-oxadiazol-3-yl]phenyl]methyl]-propanamide]
≥ 80%: inhibition of growth at 20 ppm [1] | pest or weed control at 200 ppm [2] | pest or weed control at 200 ppm [3] | pest or weed control at 200 ppm [4]

CC1(C(=O)N(Cc2ccc(-c3noc(C(F)(F)F)n3)cc2)C2CC2)CC1 [Compound 1.118, N-cyclopropyl-1-methyl-N-[[4-[5-(trifluoromethyl)-1,2,4-oxadiazol-3-yl]phenyl]methyl]-cyclopropane-carboxamide]
≥ 80%: inhibition of growth at 20 ppm [1] | pest or weed control at 200 ppm [2] | pest or weed control at 200 ppm [3] | pest or weed control at 200 ppm [4]

CCC(=O)N(Cc1ccc(-c2noc(C(F)(F)F)n2)cc1)C1CC1 [Compound 1.119, N-cyclopropyl-N-[[4-[5-(trifluoromethyl)-1,2,4-oxadiazol-3-yl]phenyl]methyl]-propanamide]
≥ 80%: inhibition of growth at 20 ppm [1] | pest or weed control at 200 ppm [2] | pest or weed control at 200 ppm [3] | pest or weed control at 200 ppm [4]

O=C(Cc1ccccc1)N(Cc1ccc(-c2noc(C(F)(F)F)n2)cc1)C1CC1 [Compound 1.121, N-cyclopropyl-2-phenyl-N-[[4-[5-(trifluoromethyl)-1,2,4-oxadiazol-3-yl]phenyl]methyl]-acetamide]
≥ 80%: inhibition of growth at 20 ppm [1] | pest or weed control at 200 ppm [2] | pest or weed control at 200 ppm [3] | pest or weed control at 200 ppm [4]

C=C(C)C(=O)N(Cc1ccc(-c2noc(C(F)(F)F)n2)cc1)C1CC1 [Compound 1.122, N-cyclopropyl-2-methyl-N-[[4-[5-(trifluoromethyl)-1,2,4-oxadiazol-3-yl]phenyl]methyl]prop-2-enamide]
≥ 80%: inhibition of growth at 20 ppm [1] | pest or weed control at 200 ppm [2] | pest or weed control at 200 ppm [3] | pest or weed control at 200 ppm [4]

O=C(C1CCSCC1)N(Cc1ccc(-c2noc(C(F)(F)F)n2)cc1)C1CC1 [Compound 1.123, N-cyclopropyl-N-[[4-[5-(trifluoromethyl)-1,2,4-oxadiazol-3-yl]phenyl]methyl]-tetrahydrothiopyran-4-carboxamide]
≥ 80%: inhibition of growth at 20 ppm [1] | pest or weed control at 200 ppm [2] | pest or weed control at 200 ppm [3] | pest or weed control at 200 ppm [4]

CC1(C)CC1C(=O)N(Cc1ccc(-c2noc(C(F)(F)F)n2)cc1)C1CC1 (stereo not shown) [Compound 1.124, N-cyclopropyl-2,2-dimethyl-N-[[4-[5-(trifluoromethyl)-1,2,4-oxadiazol-3-yl]phenyl]methyl]-cyclopropane-carboxamide]
≥ 80%: inhibition of growth at 20 ppm [1] | pest or weed control at 200 ppm [2] | pest or weed control at 200 ppm [3] | pest or weed control at 200 ppm [4]

O=C(C1CC1(Cl)Cl)N(Cc1ccc(-c2noc(C(F)(F)F)n2)cc1)C1CC1 (stereo not shown) [Compound 1.125, 2,2-dichloro-N-cyclopropyl-N-[[4-[5-(trifluoromethyl)-1,2,4-oxadiazol-3-yl]phenyl]methyl]-cyclopropane-carboxamide]
≥ 80%: inhibition of growth at 20 ppm [1] | pest or weed control at 200 ppm [2] | pest or weed control at 200 ppm [3] | pest or weed control at 200 ppm [4]

CCC(C)C(=O)N(Cc1ccc(-c2noc(C(F)(F)F)n2)cc1)C1CC1 (stereo not shown) [Compound 1.126, N-cyclopropyl-2-methyl-N-[[4-[5-(trifluoromethyl)-1,2,4-oxadiazol-3-yl]phenyl]methyl]-butanamide]
≥ 80%: inhibition of growth at 20 ppm [1] | pest or weed control at 200 ppm [2] | pest or weed control at 200 ppm [3] | pest or weed control at 200 ppm [4]

CC1(C(=O)N(Cc2ccc(-c3noc(C(F)(F)F)n3)cc2)C2CC2)COC1 [Compound 1.128, N-cyclopropyl-3-methyl-N-[[4-[5-(trifluoromethyl)-1,2,4-oxadiazol-3-yl]phenyl]methyl]-oxetane-3-carboxamide]
≥ 80%: inhibition of growth at 20 ppm [1] | pest or weed control at 200 ppm [2] | pest or weed control at 200 ppm [3] | pest or weed control at 200 ppm [4]

N#Cc1ccc(CC(=O)N(Cc2ccc(-c3noc(C(F)(F)F)n3)cc2)C2CC2)cc1 [Compound 1.130, 2-(4-cyanophenyl)-N-cyclopropyl-N-[[4-[5-(trifluoromethyl)-1,2,4-oxadiazol-3-yl]phenyl]methyl]-acetamide]
≥ 80%: inhibition of growth at 20 ppm [1] | pest or weed control at 200 ppm [2] | pest or weed control at 200 ppm [3] | pest or weed control at 200 ppm [4]

CC(C)C(NC(=O)C1CC1)C(=O)N(Cc1ccc(-c2noc(C(F)(F)F)n2)cc1)C1CC1 (stereo not shown) [Compound 1.132, N-[1-[cyclopropyl-[[4-[5-(trifluoromethyl)-1,2,4-oxadiazol-3-yl]phenyl]methyl]-carbamoyl]-2-methyl-propyl]-cyclopropane-carboxamide]
≥ 80%: inhibition of growth at 20 ppm [1] | pest or weed control at 200 ppm [2] | pest or weed control at 200 ppm [3] | pest or weed control at 200 ppm [4]

CCC(COC)C(=O)N(Cc1ccc(-c2noc(C(F)(F)F)n2)cc1)C1CC1 (stereo not shown) [Compound 1.134, N-cyclopropyl-2-(methoxymethyl)-N-[[4-[5-(trifluoromethyl)-1,2,4-oxadiazol-3-yl]phenyl]methyl]-butanamide]
≥ 80%: inhibition of growth at 20 ppm [1] | pest or weed control at 200 ppm [2] | pest or weed control at 200 ppm [3] | pest or weed control at 200 ppm [4]

COCCCC(=O)N(Cc1ccc(-c2noc(C(F)(F)F)n2)cc1)C1CC1 [Compound 1.136, N-cyclopropyl-4-methoxy-N-[[4-[5-(trifluoromethyl)-1,2,4-oxadiazol-3-yl]phenyl]methyl]-butanamide]
≥ 80%: inhibition of growth at 20 ppm [1] | pest or weed control at 200 ppm [2] | pest or weed control at 200 ppm [3] | pest or weed control at 200 ppm [4]

O=C(CC1CC1(F)F)N(Cc1ccc(-c2noc(C(F)(F)F)n2)cc1)C1CC1 (stereo not shown) [Compound 1.138, N-cyclopropyl-2-(2,2-difluorocyclopropyl)-N-[[4-[5-(trifluoromethyl)-1,2,4-oxadiazol-3-yl]phenyl]methyl]-acetamide]
≥ 80%: inhibition of growth at 20 ppm [1] | pest or weed control at 200 ppm [2] | pest or weed control at 200 ppm [3] | pest or weed control at 200 ppm [4]

O=C(C1CCCO1)N(Cc1ccc(-c2noc(C(F)(F)F)n2)cc1)C1CC1 (stereo not shown) [Compound 1.145, N-cyclopropyl-N-[[4-[5-(trifluoromethyl)-1,2,4-oxadiazol-3-yl]phenyl]methyl]-tetrahydrofuran-2-carboxamide]
≥ 80%: inhibition of growth at 20 ppm [1] | pest or weed control at 200 ppm [2] | pest or weed control at 200 ppm [3] | pest or weed control at 200 ppm [4]

N#CCC(=O)N(Cc1ccc(-c2noc(C(F)(F)F)n2)cc1)C1CC1 [Compound 1.146, 2-cyano-N-cyclopropyl-N-[[4-[5-(trifluoromethyl)-1,2,4-oxadiazol-3-yl]phenyl]methyl]-acetamide]
≥ 80%: inhibition of growth at 20 ppm [1] | pest or weed control at 200 ppm [2] | pest or weed control at 200 ppm [3] | pest or weed control at 200 ppm [4]

COC(C)C(=O)N(Cc1ccc(-c2noc(C(F)(F)F)n2)cc1)C1CC1 (stereo not shown) [Compound 1.147, N-cyclopropyl-2-methoxy-N-[[4-[5-(trifluoromethyl)-1,2,4-oxadiazol-3-yl]phenyl]methyl]-propanamide]
≥ 80%: inhibition of growth at 20 ppm [1] | pest or weed control at 200 ppm [2] | pest or weed control at 200 ppm [3] | pest or weed control at 200 ppm [4]
